How the values were obtained:
Assay in all cases: biochemical
Set-up in all cases: DiscoverX kinase panel, active-site competition binding (KINOMEscan type), percent of control at one concentration
Details in all cases: competition binding, percent of control
[1] = biological target: PRKG1 (Homo sapiens, UniProt Q13976)
[2] = biological target: PIP5K1A (Homo sapiens, UniProt Q99755)
[3] = biological target: T1, RSK1(Kin.Dom.2-C-terminal) (Homo sapiens, UniProt Q15418)
T1 construct: gene RPS6KA1; Kin.Dom.2-C-terminal

[4] = biological target: T2, ABL1(F317I)-nonphosphorylated (Homo sapiens, UniProt P00519, F317I)
T2 construct: nonphosphorylated

[5] = biological target: T3, TYK2(JH1domain-catalytic) (Homo sapiens, UniProt P29597)
T3 construct: JH1domain-catalytic
T3 sequence (P29597 whole entry): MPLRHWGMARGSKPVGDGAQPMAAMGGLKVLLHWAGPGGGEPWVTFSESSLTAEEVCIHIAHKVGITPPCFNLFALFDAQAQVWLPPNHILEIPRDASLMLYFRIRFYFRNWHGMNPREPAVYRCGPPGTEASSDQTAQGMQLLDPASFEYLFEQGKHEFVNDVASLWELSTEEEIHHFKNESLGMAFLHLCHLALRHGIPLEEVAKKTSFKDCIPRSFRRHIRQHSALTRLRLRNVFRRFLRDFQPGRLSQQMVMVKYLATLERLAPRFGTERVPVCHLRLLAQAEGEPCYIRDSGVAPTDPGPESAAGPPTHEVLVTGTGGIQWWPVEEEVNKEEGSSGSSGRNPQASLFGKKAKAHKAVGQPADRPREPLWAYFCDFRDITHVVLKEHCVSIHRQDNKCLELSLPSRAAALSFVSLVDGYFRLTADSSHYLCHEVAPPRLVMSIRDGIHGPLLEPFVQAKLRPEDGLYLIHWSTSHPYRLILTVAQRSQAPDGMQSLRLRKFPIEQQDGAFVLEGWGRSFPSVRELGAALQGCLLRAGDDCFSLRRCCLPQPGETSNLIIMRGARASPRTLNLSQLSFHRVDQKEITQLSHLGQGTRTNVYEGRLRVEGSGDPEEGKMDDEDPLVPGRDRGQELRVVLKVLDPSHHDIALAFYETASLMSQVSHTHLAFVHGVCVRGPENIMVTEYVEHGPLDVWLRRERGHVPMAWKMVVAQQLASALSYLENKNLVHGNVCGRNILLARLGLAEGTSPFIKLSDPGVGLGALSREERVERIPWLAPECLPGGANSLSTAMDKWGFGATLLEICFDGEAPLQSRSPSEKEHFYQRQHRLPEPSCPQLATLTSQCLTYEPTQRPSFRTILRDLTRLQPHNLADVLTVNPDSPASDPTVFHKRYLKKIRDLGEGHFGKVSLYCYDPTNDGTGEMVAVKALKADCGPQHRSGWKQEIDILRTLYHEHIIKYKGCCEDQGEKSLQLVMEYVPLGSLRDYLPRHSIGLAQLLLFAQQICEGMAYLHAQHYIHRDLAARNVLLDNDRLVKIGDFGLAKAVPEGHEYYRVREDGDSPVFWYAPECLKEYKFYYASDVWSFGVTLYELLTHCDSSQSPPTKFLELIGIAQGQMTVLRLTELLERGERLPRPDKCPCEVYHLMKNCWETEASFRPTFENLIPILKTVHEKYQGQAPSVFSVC

[6] = biological target: ERN1 (Homo sapiens, UniProt O75460)
Chain of ERN1 (O75460 whole entry): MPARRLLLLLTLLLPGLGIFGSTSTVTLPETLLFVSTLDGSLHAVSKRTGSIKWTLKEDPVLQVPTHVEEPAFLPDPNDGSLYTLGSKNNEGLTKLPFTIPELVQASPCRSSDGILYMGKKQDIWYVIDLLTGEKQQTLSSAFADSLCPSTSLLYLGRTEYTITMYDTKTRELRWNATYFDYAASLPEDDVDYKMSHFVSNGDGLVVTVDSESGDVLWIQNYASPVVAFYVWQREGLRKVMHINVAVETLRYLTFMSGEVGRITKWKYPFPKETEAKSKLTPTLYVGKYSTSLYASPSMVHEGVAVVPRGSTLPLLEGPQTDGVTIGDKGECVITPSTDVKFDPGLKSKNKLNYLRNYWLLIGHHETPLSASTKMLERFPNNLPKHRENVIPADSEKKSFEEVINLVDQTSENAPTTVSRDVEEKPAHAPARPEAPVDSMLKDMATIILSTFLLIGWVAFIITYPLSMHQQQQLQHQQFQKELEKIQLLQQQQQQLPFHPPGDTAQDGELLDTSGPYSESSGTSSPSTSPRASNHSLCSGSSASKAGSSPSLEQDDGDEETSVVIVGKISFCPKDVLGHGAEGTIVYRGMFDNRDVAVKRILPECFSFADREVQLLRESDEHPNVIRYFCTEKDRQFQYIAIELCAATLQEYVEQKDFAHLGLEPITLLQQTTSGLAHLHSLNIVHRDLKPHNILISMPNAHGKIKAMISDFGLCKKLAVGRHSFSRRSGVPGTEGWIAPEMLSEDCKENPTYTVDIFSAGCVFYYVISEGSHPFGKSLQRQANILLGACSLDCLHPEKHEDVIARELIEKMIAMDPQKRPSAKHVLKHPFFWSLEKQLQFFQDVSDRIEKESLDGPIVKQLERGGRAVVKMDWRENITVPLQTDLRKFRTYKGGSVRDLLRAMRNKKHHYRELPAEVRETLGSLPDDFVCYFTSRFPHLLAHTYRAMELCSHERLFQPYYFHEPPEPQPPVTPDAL

[7] = biological target: TAOK1 (Homo sapiens, UniProt Q7L7X3)
Chain of TAOK1 (Q7L7X3 whole entry): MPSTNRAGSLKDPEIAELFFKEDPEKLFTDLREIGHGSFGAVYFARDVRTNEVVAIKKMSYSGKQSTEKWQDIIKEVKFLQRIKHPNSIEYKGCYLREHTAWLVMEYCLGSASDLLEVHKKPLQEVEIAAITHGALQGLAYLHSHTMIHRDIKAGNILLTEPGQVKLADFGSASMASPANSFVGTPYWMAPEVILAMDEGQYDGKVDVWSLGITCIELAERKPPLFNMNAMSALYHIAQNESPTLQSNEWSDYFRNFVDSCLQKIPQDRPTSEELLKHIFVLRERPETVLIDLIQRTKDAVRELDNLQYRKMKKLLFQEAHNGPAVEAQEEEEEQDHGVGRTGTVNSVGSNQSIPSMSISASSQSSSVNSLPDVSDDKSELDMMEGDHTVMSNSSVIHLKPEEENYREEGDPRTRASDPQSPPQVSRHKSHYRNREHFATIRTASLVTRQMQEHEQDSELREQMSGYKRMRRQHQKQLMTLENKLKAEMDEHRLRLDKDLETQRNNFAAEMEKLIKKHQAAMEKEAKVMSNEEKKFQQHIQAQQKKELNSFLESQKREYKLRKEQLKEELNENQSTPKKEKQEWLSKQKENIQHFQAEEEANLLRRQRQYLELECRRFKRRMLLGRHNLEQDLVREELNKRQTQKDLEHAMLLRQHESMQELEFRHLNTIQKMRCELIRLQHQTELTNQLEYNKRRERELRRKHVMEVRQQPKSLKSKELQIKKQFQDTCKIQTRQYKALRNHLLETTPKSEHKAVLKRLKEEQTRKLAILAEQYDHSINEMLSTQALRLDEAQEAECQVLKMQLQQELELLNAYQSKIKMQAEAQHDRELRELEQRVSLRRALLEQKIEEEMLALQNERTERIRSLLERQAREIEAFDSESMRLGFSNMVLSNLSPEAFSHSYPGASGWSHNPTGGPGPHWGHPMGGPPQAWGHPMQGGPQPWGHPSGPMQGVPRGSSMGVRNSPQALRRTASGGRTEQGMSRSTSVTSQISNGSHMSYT

[8] = biological target: HIPK1 (Homo sapiens, UniProt Q86Z02)
[9] = biological target: DAPK1 (Homo sapiens, UniProt P53355)
[10] = biological target: T4, ABL1(Y253F)-phosphorylated (Homo sapiens, UniProt P00519, Y253F)
T4 construct: phosphorylated

[11] = biological target: AURKB (Homo sapiens, UniProt Q96GD4)
Chain of AURKB (Q96GD4 whole entry): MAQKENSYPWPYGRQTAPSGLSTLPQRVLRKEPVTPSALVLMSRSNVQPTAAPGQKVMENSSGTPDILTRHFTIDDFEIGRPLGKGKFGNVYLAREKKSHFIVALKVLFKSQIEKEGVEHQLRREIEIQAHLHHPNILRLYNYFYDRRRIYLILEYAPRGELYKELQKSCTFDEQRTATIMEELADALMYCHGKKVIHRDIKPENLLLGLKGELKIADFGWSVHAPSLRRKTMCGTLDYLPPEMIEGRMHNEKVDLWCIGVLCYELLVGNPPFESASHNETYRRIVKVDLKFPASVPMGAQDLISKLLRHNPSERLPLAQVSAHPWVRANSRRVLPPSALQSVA

[12] = biological target: PRKCQ (Homo sapiens, UniProt Q04759)
[13] = biological target: EPHB2 (Homo sapiens, UniProt P29323)
[14] = biological target: MYO3B (Homo sapiens, UniProt Q8WXR4)
[15] = biological target: WNK1 (Homo sapiens, UniProt Q9H4A3)
[16] = biological target: PIK3CD (Homo sapiens, UniProt O00329)
[17] = biological target: PDGFRA (Homo sapiens, UniProt P16234)
[18] = biological target: T5, VEGFR2 (Homo sapiens, UniProt P35968)
T5 construct: gene KDR

[19] = biological target: CAMK1G (Homo sapiens, UniProt Q96NX5)
Chain of CAMK1G (Q96NX5 whole entry): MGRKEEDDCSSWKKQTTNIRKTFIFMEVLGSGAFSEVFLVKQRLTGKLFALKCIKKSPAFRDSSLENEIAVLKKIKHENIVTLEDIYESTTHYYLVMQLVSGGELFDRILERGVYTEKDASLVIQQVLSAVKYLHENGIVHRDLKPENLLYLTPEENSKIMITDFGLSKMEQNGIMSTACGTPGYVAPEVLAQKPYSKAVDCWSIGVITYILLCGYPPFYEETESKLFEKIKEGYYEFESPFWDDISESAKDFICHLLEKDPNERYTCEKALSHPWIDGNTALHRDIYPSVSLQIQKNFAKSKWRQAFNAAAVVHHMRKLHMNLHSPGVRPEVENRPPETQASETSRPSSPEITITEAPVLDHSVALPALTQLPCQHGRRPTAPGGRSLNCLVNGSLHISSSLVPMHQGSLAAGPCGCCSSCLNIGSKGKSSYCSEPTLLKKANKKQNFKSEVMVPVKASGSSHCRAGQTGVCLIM

[20] = biological target: T6, PYK2 (Homo sapiens, UniProt Q14289)
T6 construct: gene PTK2B
T6 sequence (Q14289 whole entry): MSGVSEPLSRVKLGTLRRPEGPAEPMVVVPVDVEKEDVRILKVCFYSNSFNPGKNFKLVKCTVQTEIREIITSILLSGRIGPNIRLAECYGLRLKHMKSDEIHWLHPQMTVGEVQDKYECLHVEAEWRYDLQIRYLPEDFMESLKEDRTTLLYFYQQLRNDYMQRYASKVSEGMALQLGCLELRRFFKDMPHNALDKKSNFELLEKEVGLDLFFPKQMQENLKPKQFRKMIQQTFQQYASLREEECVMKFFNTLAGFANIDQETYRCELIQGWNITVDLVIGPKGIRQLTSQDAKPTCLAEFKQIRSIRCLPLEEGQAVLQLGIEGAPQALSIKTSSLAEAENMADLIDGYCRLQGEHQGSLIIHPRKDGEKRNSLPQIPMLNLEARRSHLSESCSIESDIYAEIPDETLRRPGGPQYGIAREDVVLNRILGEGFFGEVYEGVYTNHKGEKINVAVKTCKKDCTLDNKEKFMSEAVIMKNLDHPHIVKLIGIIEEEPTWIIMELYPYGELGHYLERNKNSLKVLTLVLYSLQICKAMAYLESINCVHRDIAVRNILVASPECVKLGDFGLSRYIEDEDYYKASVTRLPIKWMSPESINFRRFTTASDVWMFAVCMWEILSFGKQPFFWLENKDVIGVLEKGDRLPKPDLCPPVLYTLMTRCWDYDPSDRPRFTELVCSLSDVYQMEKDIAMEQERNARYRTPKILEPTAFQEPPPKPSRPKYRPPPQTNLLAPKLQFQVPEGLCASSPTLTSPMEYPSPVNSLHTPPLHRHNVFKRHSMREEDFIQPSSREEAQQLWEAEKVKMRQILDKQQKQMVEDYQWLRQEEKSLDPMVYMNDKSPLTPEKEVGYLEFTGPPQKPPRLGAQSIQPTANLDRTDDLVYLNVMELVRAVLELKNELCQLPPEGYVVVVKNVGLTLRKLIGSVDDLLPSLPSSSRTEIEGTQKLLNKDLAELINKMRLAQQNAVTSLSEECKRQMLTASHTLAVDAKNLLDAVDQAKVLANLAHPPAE

[21] = biological target: T7, ERK1 (Homo sapiens, UniProt P27361)
T7 construct: gene MAPK3

COc1cc2c(cn1)N(C)C(=O)[C@@H](NC(=O)c1nc3n(n1)[C@H](c1ccccc1)CC3)CC2 [GNE684, (S)-N-((S)-7-methoxy-1-methyl-2-oxo-2,3,4,5-tetrahydro-1H-pyrido[3,4-b]azepin-3-yl)-5-phenyl-6,7-dihydro-5H-pyrrolo[1,2-b][1,2,4]triazole-2-carboxamide]
remaining binding at 10 µM [1]: 81%
remaining binding at 10 µM [2]: 99%
remaining binding at 10 µM [3]: 100%
remaining binding at 10 µM [4]: 97%
remaining binding at 10 µM [5]: 100%
remaining binding at 10 µM [6]: 97%
remaining binding at 10 µM [7]: 100%
remaining binding at 10 µM [8]: 82%
remaining binding at 10 µM [9]: 88%
remaining binding at 10 µM [10]: 100%
remaining binding at 10 µM [11]: 84%
remaining binding at 10 µM [12]: 100%
remaining binding at 10 µM [13]: 82%
remaining binding at 10 µM [14]: 89%
remaining binding at 10 µM [15]: 100%
remaining binding at 10 µM [16]: 78%
remaining binding at 10 µM [17]: 100%
remaining binding at 10 µM [18]: 93%
remaining binding at 10 µM [19]: 100%
remaining binding at 10 µM [20]: 92%
remaining binding at 10 µM [21]: 96%
